Holding throughout (assay type): cell-based
Holding throughout (conditions): compounds at 50 nM and 500 nM

One assay deals with T1, WEE1 (Homo sapiens, UniProt P30291+Q96SW2).
T1 construct: The supernatant was aspirated as the extracted total cell protein; endogenous in cells; host or cells: human peripheral blood mononuclear cells (hPBMCs)
Kind of assay: Western blot degradation of WEE1 in hPBMCs (24 h). The method in brief: (§1)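 hPBMCs (1×10^6 cells/mL) exposed to compound at 50 nM and 500 nM for 24 h, DMSO as reference. Lysates run on SDS-PAGE and immunoblotted. Band grayscale normalized to internal control gives % protein remaining; DC50 from fitted concentration-response of band intensity versus DMSO.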
On the technique in general: A western blot detects proteins with antibodies after separation by electrophoresis.

In the next assay the target is T2, IKZF1 (Homo sapiens, UniProt Q13422+Q96SW2).
T2 construct: The supernatant was aspirated as the extracted total cell protein; endogenous in cells; host or cells: human peripheral blood mononuclear cells (hPBMCs)
As to the kind of experiment: Western blot degradation of IKZF1 in hPBMCs (24 h). The method in brief: as §1

A further assay has as its target T3, IKZF2 (Homo sapiens, UniProt Q96SW2+Q9UKS7).
T3 construct: The supernatant was aspirated as the extracted total cell protein; endogenous in cells; host or cells: human peripheral blood mononuclear cells (hPBMCs)
As to the kind of experiment: Western blot degradation of IKZF2 in hPBMCs (24 h). A digest of the protocol:
as §1

Another assay deals with T4, IKZF3 (Homo sapiens, UniProt Q96SW2+Q9UKT9).
T4 construct: The supernatant was aspirated as the extracted total cell protein; endogenous in cells; host or cells: human peripheral blood mononuclear cells (hPBMCs)
As to the kind of experiment: Western blot degradation of IKZF3 in hPBMCs (24 h). The method in brief:
as §1

The target of the next assay is T5, CK1α (Homo sapiens, UniProt P48729+Q96SW2).
T5 construct: The supernatant was aspirated as the extracted total cell protein; endogenous in cells; host or cells: human peripheral blood mononuclear cells (hPBMCs)
As to the kind of experiment: Western blot degradation of CK1α in hPBMCs (24 h). The method in brief: as §1

The target in a further assay is T6, GSPT1 (Homo sapiens, UniProt P15170+Q96SW2).
T6 construct: The supernatant was aspirated as the extracted total cell protein; endogenous in cells; host or cells: human peripheral blood mononuclear cells (hPBMCs)
As to the kind of experiment: Western blot degradation of GSPT1 in hPBMCs (24 h). A digest of the protocol: as §1

T5 sequence (P48729 whole entry): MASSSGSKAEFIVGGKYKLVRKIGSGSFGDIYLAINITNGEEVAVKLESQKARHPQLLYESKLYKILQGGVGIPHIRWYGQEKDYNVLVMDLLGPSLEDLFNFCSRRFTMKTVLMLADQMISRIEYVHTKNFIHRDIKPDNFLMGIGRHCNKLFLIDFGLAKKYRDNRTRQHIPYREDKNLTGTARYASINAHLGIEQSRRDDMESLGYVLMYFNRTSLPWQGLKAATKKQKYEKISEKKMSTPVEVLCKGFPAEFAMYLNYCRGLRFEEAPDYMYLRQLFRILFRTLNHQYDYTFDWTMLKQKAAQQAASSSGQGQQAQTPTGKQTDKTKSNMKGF
T5 sequence (Q96SW2 whole entry): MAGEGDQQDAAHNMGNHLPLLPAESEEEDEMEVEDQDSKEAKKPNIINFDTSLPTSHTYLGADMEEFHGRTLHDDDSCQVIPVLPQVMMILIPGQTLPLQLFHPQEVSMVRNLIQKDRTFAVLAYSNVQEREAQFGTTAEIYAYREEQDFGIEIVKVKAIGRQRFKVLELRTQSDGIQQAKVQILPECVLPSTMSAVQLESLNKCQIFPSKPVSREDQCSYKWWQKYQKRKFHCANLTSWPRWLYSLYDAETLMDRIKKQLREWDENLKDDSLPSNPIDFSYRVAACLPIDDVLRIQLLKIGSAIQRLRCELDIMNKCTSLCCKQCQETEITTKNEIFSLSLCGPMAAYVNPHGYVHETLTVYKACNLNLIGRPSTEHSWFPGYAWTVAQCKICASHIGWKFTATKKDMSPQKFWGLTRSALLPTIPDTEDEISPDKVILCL
T5 sequence (Q16531 whole entry partner): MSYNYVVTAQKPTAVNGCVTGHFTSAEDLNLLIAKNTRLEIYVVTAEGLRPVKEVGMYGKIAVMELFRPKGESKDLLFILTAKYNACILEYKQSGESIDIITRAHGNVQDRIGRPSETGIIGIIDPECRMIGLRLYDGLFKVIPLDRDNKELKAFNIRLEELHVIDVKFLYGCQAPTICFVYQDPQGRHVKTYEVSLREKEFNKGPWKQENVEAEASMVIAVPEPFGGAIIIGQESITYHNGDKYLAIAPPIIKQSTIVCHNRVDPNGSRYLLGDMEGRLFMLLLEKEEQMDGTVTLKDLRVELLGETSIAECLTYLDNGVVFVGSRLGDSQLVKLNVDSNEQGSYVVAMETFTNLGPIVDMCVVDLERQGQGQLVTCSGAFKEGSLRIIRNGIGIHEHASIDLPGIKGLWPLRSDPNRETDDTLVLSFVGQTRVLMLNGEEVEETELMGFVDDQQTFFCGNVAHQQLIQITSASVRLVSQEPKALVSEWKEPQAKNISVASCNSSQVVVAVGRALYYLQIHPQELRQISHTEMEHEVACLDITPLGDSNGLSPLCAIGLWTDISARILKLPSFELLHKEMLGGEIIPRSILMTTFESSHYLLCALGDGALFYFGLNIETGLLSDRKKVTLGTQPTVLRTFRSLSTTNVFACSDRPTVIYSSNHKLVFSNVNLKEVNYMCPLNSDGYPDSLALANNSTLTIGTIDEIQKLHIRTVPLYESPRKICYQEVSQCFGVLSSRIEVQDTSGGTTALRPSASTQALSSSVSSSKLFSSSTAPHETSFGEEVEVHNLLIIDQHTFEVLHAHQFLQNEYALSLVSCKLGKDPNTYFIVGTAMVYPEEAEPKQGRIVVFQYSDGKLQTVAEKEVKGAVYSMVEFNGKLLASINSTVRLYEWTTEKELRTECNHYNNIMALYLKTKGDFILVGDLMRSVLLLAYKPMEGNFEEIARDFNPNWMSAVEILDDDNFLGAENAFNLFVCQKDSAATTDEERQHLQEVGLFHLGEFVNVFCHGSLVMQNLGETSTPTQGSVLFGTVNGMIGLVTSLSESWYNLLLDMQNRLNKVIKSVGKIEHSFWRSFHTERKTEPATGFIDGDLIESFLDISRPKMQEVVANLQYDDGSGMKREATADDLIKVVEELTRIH
T6 sequence (P15170 whole entry): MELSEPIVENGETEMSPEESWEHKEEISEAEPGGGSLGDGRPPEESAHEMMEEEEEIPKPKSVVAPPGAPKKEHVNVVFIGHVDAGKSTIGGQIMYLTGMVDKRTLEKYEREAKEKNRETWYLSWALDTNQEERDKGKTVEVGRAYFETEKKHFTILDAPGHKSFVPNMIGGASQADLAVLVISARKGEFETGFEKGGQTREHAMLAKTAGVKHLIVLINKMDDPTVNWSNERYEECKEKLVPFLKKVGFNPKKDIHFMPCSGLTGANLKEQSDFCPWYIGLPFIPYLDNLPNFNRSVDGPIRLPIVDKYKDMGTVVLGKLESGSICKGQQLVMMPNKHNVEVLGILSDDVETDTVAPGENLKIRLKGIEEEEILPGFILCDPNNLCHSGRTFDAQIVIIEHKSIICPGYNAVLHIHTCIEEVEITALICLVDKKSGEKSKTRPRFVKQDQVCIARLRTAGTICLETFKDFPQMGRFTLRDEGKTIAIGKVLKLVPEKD
T6 sequence (Q96SW2 whole entry): as the sequence (Q96SW2 whole entry) above
T6 sequence (Q16531 whole entry partner): as the sequence (Q16531 whole entry partner) above
T2 sequence (Q13422 whole entry): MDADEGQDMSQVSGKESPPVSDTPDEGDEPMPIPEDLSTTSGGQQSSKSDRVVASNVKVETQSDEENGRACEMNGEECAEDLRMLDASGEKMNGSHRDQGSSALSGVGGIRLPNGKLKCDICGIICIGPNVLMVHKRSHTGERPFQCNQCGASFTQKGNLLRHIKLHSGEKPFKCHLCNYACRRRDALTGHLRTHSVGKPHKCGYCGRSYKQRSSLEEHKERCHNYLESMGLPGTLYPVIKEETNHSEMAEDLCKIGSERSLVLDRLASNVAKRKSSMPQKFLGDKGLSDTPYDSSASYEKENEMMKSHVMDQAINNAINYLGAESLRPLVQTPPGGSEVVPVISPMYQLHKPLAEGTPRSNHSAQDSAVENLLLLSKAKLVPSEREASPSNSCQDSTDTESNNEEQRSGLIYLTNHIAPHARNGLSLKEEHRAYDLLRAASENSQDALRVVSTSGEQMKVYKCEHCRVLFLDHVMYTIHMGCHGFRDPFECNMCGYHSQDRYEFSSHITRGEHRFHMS
T2 sequence (Q96SW2 whole entry): as the sequence (Q96SW2 whole entry) above
T2 sequence (Q16531 whole entry partner): as the sequence (Q16531 whole entry partner) above
T4 sequence (Q9UKT9 whole entry): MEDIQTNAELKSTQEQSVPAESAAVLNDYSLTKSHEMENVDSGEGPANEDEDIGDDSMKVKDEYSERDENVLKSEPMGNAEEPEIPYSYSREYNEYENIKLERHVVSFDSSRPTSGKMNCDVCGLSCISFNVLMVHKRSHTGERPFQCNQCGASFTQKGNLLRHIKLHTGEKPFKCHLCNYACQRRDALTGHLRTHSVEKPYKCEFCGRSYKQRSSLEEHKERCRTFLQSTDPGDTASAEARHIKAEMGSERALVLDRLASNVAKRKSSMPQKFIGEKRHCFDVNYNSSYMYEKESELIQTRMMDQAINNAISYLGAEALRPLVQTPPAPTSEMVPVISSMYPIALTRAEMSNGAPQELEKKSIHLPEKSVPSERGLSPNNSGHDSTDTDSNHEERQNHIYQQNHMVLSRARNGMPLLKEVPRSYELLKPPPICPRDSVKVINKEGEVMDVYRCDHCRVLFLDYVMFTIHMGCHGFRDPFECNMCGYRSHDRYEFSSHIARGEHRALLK
T4 sequence (Q96SW2 whole entry): as the sequence (Q96SW2 whole entry) above
T4 sequence (Q16531 whole entry partner): as the sequence (Q16531 whole entry partner) above
T1 sequence (P30291 whole entry): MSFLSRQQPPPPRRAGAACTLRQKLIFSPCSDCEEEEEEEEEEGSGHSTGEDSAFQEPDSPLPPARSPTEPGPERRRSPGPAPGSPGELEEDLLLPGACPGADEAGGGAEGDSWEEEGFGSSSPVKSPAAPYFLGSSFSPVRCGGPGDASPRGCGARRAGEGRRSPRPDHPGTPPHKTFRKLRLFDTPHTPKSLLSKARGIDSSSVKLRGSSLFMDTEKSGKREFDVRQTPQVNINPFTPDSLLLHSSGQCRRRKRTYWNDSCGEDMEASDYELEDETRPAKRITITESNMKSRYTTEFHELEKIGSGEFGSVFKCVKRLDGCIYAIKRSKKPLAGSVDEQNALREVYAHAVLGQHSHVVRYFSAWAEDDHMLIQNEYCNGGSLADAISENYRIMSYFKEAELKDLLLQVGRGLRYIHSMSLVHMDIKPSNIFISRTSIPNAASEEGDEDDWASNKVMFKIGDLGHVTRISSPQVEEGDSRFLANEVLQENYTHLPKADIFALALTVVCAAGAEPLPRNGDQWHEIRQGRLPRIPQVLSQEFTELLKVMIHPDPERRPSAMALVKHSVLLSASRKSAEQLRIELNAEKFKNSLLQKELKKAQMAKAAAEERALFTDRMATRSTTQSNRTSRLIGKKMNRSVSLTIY
T1 sequence (Q96SW2 whole entry): as the sequence (Q96SW2 whole entry) above
T1 sequence (Q16531 whole entry partner): as the sequence (Q16531 whole entry partner) above

`O=C1CCN(N2Cc3cc(CN4C5CCC4CN(c4cccc(Cl)c4Cl)C5)ccc3C2=O)C(=O)N1` [GT-07430, 1-(5-((3-(2,3-dichlorophenyl)-3,8-diazabicyclo[3.2.1]octan-8-yl)methyl)-1-oxoisoindolin-2-yl)dihydropyrimidine-2,4(1H,3H)-dione]: the “WEE1 substrate protein remaining %” value on WEE1 is reported as “B (80%< substrate protein remaining % ≤100%)”. On IKZF1, the “IKZF1 substrate protein remaining %” value was “A (0% ≤ substrate protein remaining % ≤80%)”. The “IKZF2 substrate protein remaining %” value at IKZF2 was “B (80%< substrate protein remaining % ≤100%)”. The “IKZF3 substrate protein remaining %” value on IKZF3 is “B (80%< substrate protein remaining % ≤100%)”. The “CK1α substrate protein remaining %” value on CK1α is recorded as “A (0% ≤ substrate protein remaining % ≤80%)”. In addition, the “GSPT1 substrate protein remaining %” value on GSPT1 is listed as “A (0% ≤ substrate protein remaining % ≤80%)”.
For the compound `O=C1CCN(N2Cc3cc(CN4CCCN(c5cccc(Cl)c5Cl)CC4)ccc3C2=O)C(=O)N1` [GT-07431, 1-(5-((4-(2,3-dichlorophenyl)-1,4-diazepan-1-yl)methyl)-1-oxoisoindolin-2-yl)dihydropyrimidine-2,4(1H,3H)-dione], at WEE1, the “WEE1 substrate protein remaining %” value is “B (80%< substrate protein remaining % ≤100%)”. On IKZF1, the “IKZF1 substrate protein remaining %” value was “A (0% ≤ substrate protein remaining % ≤80%)”. Also, the “IKZF2 substrate protein remaining %” value at IKZF2 is recorded as “B (80%< substrate protein remaining % ≤100%)”. Also, the “IKZF3 substrate protein remaining %” value at IKZF3 is on record as “B (80%< substrate protein remaining % ≤100%)”. For the same compound, the “CK1α substrate protein remaining %” value at CK1α is listed as “A (0% ≤ substrate protein remaining % ≤80%)”. The “GSPT1 substrate protein remaining %” value at GSPT1 is on record as “B (80%< substrate protein remaining % ≤100%)”.
On to `CC1CN(C(c2ccccc2)c2ccccc2)CC(C)N1Cc1ccc2c(c1)CN(N1CCC(=O)NC1=O)C2=O` (stereo not drawn) [GT-07433, 1-(5-((4-benzhydryl-2,6-dimethylpiperazin-1-yl)methyl)-1-oxoisoindolin-2-yl)dihydropyrimidine-2,4(1H,3H)-dione], for which the “WEE1 substrate protein remaining %” value on WEE1 is on record as “B (80%< substrate protein remaining % ≤100%)”. Besides, the “IKZF1 substrate protein remaining %” value on IKZF1 is listed as “B (80%< substrate protein remaining % ≤100%)”. Further, the “IKZF2 substrate protein remaining %” value on IKZF2 is recorded as “A (0% ≤ substrate protein remaining % ≤80%)”. The “IKZF3 substrate protein remaining %” value at IKZF3 is “B (80%< substrate protein remaining % ≤100%)”. The “CK1α substrate protein remaining %” value on CK1α was “A (0% ≤ substrate protein remaining % ≤80%)”. On GSPT1, the “GSPT1 substrate protein remaining %” value is “B (80%< substrate protein remaining % ≤100%)”.
As to `O=C1CCN(N2C(=O)c3ccc(CN4CC5CC(C4)N5c4cccc(Cl)c4Cl)cc3C2=O)C(=O)N1` [GT-07434, 5-((6-(2,3-dichlorophenyl)-3,6-diazabicyclo[3.1.1]heptan-3-yl)methyl)-2-(2,4-dioxotetrahydropyrimidin-1(2H)-yl)isoindoline-1,3-dione], the “WEE1 substrate protein remaining %” value on WEE1 is reported as “B (80%< substrate protein remaining % ≤100%)”. Also, the “IKZF1 substrate protein remaining %” value on IKZF1 is given as “B (80%< substrate protein remaining % ≤100%)”. In addition, the “IKZF2 substrate protein remaining %” value at IKZF2 is listed as “B (80%< substrate protein remaining % ≤100%)”. Besides, the “IKZF3 substrate protein remaining %” value on IKZF3 is “B (80%< substrate protein remaining % ≤100%)”. The “CK1α substrate protein remaining %” value on CK1α was “A (0% ≤ substrate protein remaining % ≤80%)”. Further, the “GSPT1 substrate protein remaining %” value at GSPT1 is “B (80%< substrate protein remaining % ≤100%)”.
For the compound `O=C1CCN(N2C(=O)c3ccc(CN4C[C@H]5C[C@@H]4CN5c4cccc(Cl)c4Cl)cc3C2=O)C(=O)N1` [GT-07435, 5-(((1R,4R)-5-(2,3-dichlorophenyl)-2,5-diazabicyclo[2.2.1]heptan-2-yl)methyl)-2-(2,4-dioxotetrahydropyrimidin-1(2H)-yl)isoindoline-1,3-dione], at WEE1, the “WEE1 substrate protein remaining %” value is recorded as “B (80%< substrate protein remaining % ≤100%)”. Further, the “IKZF1 substrate protein remaining %” value on IKZF1 is on record as “B (80%< substrate protein remaining % ≤100%)”. For the same compound, on IKZF2, the “IKZF2 substrate protein remaining %” value was “B (80%< substrate protein remaining % ≤100%)”. Besides, the “IKZF3 substrate protein remaining %” value on IKZF3 is recorded as “B (80%< substrate protein remaining % ≤100%)”. In addition, the “CK1α substrate protein remaining %” value on CK1α was “A (0% ≤ substrate protein remaining % ≤80%)”. For the same compound, the “GSPT1 substrate protein remaining %” value at GSPT1 is recorded as “B (80%< substrate protein remaining % ≤100%)”.
Regarding `O=C1CCN(N2C(=O)c3ccc(CN4CC5CCC4CN5c4cccc(Cl)c4Cl)cc3C2=O)C(=O)N1` (stereo not drawn) [GT-07436, 5-((5-(2,3-dichlorophenyl)-2,5-diazabicyclo[2.2.2]octan-2-yl)methyl)-2-(2,4-dioxotetrahydropyrimidin-1(2H)-yl)isoindoline-1,3-dione], the “WEE1 substrate protein remaining %” value on WEE1 is “B (80%< substrate protein remaining % ≤100%)”. In addition, the “IKZF1 substrate protein remaining %” value on IKZF1 is on record as “B (80%< substrate protein remaining % ≤100%)”. The “IKZF2 substrate protein remaining %” value at IKZF2 is “A (0% ≤ substrate protein remaining % ≤80%)”. For the same compound, the “IKZF3 substrate protein remaining %” value on IKZF3 was “B (80%< substrate protein remaining % ≤100%)”. In addition, the “CK1α substrate protein remaining %” value at CK1α is “A (0% ≤ substrate protein remaining % ≤80%)”. Also, at GSPT1, the “GSPT1 substrate protein remaining %” value is “B (80%< substrate protein remaining % ≤100%)”.
Turning to `O=C1CCN(N2C(=O)c3ccc(CN4CC5CCC(C4)N5c4cccc(Cl)c4Cl)cc3C2=O)C(=O)N1` [GT-07437, 5-((8-(2,3-dichlorophenyl)-3,8-diazabicyclo[3.2.1]octan-3-yl)methyl)-2-(2,4-dioxotetrahydropyrimidin-1(2H)-yl)isoindoline-1,3-dione], the “WEE1 substrate protein remaining %” value at WEE1 is “A (0% ≤ substrate protein remaining % ≤80%)”. Moreover, the “IKZF1 substrate protein remaining %” value on IKZF1 was “B (80%< substrate protein remaining % ≤100%)”. Also, the “IKZF2 substrate protein remaining %” value on IKZF2 is recorded as “B (80%< substrate protein remaining % ≤100%)”. Besides, the “IKZF3 substrate protein remaining %” value at IKZF3 was “B (80%< substrate protein remaining % ≤100%)”. At CK1α, the “CK1α substrate protein remaining %” value was “A (0% ≤ substrate protein remaining % ≤80%)”. In addition, the “GSPT1 substrate protein remaining %” value on GSPT1 is recorded as “A (0% ≤ substrate protein remaining % ≤80%)”.
`O=C1CCN(N2C(=O)c3ccc(CN4C5CCC4CN(c4cccc(Cl)c4Cl)C5)cc3C2=O)C(=O)N1` [GT-07438, 5-((3-(2,3-dichlorophenyl)-3,8-diazabicyclo[3.2.1]octan-8-yl)methyl)-2-(2,4-dioxotetrahydropyrimidin-1(2H)-yl)isoindoline-1,3-dione]: the “WEE1 substrate protein remaining %” value at WEE1 is “A (0% ≤ substrate protein remaining % ≤80%)”. The “IKZF1 substrate protein remaining %” value at IKZF1 was “B (80%< substrate protein remaining % ≤100%)”. Further, the “IKZF2 substrate protein remaining %” value at IKZF2 is on record as “B (80%< substrate protein remaining % ≤100%)”. The “IKZF3 substrate protein remaining %” value at IKZF3 is recorded as “B (80%< substrate protein remaining % ≤100%)”. Besides, at CK1α, the “CK1α substrate protein remaining %” value was “A (0% ≤ substrate protein remaining % ≤80%)”. Besides, the “GSPT1 substrate protein remaining %” value on GSPT1 is “A (0% ≤ substrate protein remaining % ≤80%)”.
Turning to `O=C1CCN(N2C(=O)c3ccc(CN4CCCN(c5cccc(Cl)c5Cl)CC4)cc3C2=O)C(=O)N1` [GT-07439, 5-((4-(2,3-dichlorophenyl)-1,4-diazepan-1-yl)methyl)-2-(2,4-dioxotetrahydropyrimidin-1(2H)-yl)isoindoline-1,3-dione], on WEE1, the “WEE1 substrate protein remaining %” value is “B (80%< substrate protein remaining % ≤100%)”. Further, the “IKZF1 substrate protein remaining %” value at IKZF1 is recorded as “B (80%< substrate protein remaining % ≤100%)”. In addition, at IKZF2, the “IKZF2 substrate protein remaining %” value is given as “B (80%< substrate protein remaining % ≤100%)”. Also, the “IKZF3 substrate protein remaining %” value at IKZF3 is reported as “B (80%< substrate protein remaining % ≤100%)”. Further, the “CK1α substrate protein remaining %” value on CK1α is “A (0% ≤ substrate protein remaining % ≤80%)”. The “GSPT1 substrate protein remaining %” value at GSPT1 was “A (0% ≤ substrate protein remaining % ≤80%)”.
Turning to `O=C1CCN(N2C(=O)c3ccc(CN4CC=C(c5ccnc(Cl)c5Cl)CC4)cc3C2=O)C(=O)N1` [GT-07440, 5-((2′,3′-dichloro-3,6-dihydro-[4,4′-bipyridin]-1(2H)-yl)methyl)-2-(2,4-dioxotetrahydropyrimidin-1(2H)-yl)isoindoline-1,3-dione], on WEE1, the “WEE1 substrate protein remaining %” value is on record as “A (0% ≤ substrate protein remaining % ≤80%)”. On IKZF1, the “IKZF1 substrate protein remaining %” value is “B (80%< substrate protein remaining % ≤100%)”. Further, on IKZF2, the “IKZF2 substrate protein remaining %” value was “B (80%< substrate protein remaining % ≤100%)”. The “IKZF3 substrate protein remaining %” value on IKZF3 is recorded as “B (80%< substrate protein remaining % ≤100%)”. Also, at CK1α, the “CK1α substrate protein remaining %” value is reported as “A (0% ≤ substrate protein remaining % ≤80%)”. The “GSPT1 substrate protein remaining %” value on GSPT1 was “A (0% ≤ substrate protein remaining % ≤80%)”.
`O=C1CCN(N2C(=O)c3ccc(CN4CC=C(c5ccoc5)CC4)cc3C2=O)C(=O)N1` [GT-07442, 2-(2,4-dioxotetrahydropyrimidin-1(2H)-yl)-5-((4-(furan-3-yl)-3,6-dihydropyridin-1(2H)-yl)methyl)isoindoline-1,3-dione]: the “WEE1 substrate protein remaining %” value at WEE1 is recorded as “A (0% ≤ substrate protein remaining % ≤80%)”. Also, the “IKZF1 substrate protein remaining %” value on IKZF1 is recorded as “B (80%< substrate protein remaining % ≤100%)”. For the same compound, the “IKZF2 substrate protein remaining %” value at IKZF2 is given as “B (80%< substrate protein remaining % ≤100%)”. The “IKZF3 substrate protein remaining %” value on IKZF3 is “A (0% ≤ substrate protein remaining % ≤80%)”. For the same compound, on CK1α, the “CK1α substrate protein remaining %” value is reported as “B (80%< substrate protein remaining % ≤100%)”. The “GSPT1 substrate protein remaining %” value at GSPT1 is “A (0% ≤ substrate protein remaining % ≤80%)”.

Values taken from US20260356819A1, “OXOISOINDOLINYL-SUBSTITUTED […] DERIVATIVE AND USE THEREOF” (GLUETACS THERAPEUTICS (SHANGHAI) CO., LTD., priority 2023, published 2026).
